SMILES strings stand for the structures. Like-named read-outs stand apart in the source and are kept apart here. Where only a bound is given, the exact number is not on record here.

The target of one assay is human DGKα (Homo sapiens (Human), UniProt P23743). The assay can be described thus: biochemical. As to conditions: detergent/lipid micelle substrate; read-out: DGKα IC50. A digest of the protocol: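 Enzymes were baculovirus/Sf9 full-length human DGKα or DGKζ with His tag. The substrate was PS/DAG in octyl glucoside micelles, in MOPS pH 7.5 buffer with NaCl, MgCl2, CaCl2 and DTT.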

Another assay has as its system Human venous whole blood. The assay can be described thus: Human Whole Blood IFN-γ Assay. The settings on record: human whole blood, anti-CD3 plus anti-CD28 as baseline, 3 μM Example 40 co-stimulation as 100% activation, read-out: INF-γ Whole Blood Normalized Agonist EC50. It is filed as cell-based. Here is the method:
Human venous whole blood (22.5 μL per well), obtained from healthy donors, was pre-treated with compounds for one hour at 37° C. in a humidified 95% air/5% CO2 incubator. The blood was stimulated with 2.5 μL anti-human CD3 and anti-CD28 mAb at a final concentration of 1 μg/mL each for 24 hours at 37° C. IFN-γ in the supernatants was measured using AlphaLISA kit (Cat #AL217).

In assay [1] the test system is naïve human CD8 T cells. Nature of the assay: CellTiter-Glo CD8 T Cell Proliferation Assay. It is filed as cell-based. As to conditions: CellTiter-Glo CD8 T cell proliferation, normalized, read-out: CD8 GLO normalized EC50. On the procedure: Frozen naïve human CD8 T cells were thawed in RPMI+10% FBS, incubated for 2 h in 37° C., and counted. The 384-well tissue culture plate was coated overnight at 4° C. with 20 μl anti-human CD3 at 0.1 μg/mL in plain RPMI, which was removed off the plate before 20 k/40 μl CD8 T cells with 0.5 μg/mL soluble anti-human CD28 were added to each well. The compounds were echoed to the cell plate immediately after the cells were plated. After 72 h incubation at 37° C. incubator, 10 μl CellTiter-glo reagent (Promega catalog number G7570) was added to each well. The plate was vigorously shaken for 5 mins, incubated at room temperature for another 15 mins and read on Envision for CD8 T cell proliferation. In analysis, 0.1 μg/mL anti-CD3 and 0.5 μg/mL anti-CD28 stimulated CD8 T cell signal was background.

Assay [2] concerns naïve human CD8 T cells. Nature of the assay: cells. As to conditions: Homo sapiens, T-cell, read-out: HuCD8 INFG Normalized EC50, anti-CD3 plus anti-CD28 as baseline; 3 μM Example 40 co-stimulation as 100% activation. In short, it runs like this:
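Thawed frozen cells, 40,000/well, stimulated on plate-bound anti-CD3 (coated at 0.05 μg/mL) plus soluble anti-CD28 0.1 μg/mL; compounds added immediately after plating. After 20 h at 37° C., supernatant IFN-γ quantitated by AlphaLISA, counts converted to IFN-γ concentration […].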

Assay [3] relates to pre-activated CD4 T cells and Raji cells. The assay can be described thus: Raji CD4 T Cell IL2 Assay. It is filed as cell-based. As to conditions: Homo sapiens, Raji.

Chain of human DGKα (P23743 other isoform, or with tags, fused parts or gaps): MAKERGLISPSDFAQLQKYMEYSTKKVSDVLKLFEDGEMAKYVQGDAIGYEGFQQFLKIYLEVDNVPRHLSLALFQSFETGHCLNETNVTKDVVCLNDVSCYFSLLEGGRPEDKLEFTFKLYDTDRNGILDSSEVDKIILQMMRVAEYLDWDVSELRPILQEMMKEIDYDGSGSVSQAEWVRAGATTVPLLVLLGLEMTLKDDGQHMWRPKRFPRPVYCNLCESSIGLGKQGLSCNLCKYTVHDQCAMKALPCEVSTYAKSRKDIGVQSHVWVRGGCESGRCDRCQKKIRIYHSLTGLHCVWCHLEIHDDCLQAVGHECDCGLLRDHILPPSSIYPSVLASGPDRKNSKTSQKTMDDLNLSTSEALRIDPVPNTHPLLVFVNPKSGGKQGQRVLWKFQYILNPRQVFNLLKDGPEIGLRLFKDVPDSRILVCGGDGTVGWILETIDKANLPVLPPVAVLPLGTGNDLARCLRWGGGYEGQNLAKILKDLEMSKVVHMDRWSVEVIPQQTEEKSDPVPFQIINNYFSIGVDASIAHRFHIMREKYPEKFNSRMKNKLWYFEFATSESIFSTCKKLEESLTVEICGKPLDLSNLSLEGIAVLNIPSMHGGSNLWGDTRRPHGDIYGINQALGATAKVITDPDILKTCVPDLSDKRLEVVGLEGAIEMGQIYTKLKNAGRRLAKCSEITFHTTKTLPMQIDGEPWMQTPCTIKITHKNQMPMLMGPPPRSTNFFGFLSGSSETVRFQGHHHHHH

As for `Cc1cccc(CN2CCN(c3c(C#N)c(=O)n(C)c4ccc(Cl)nc34)CC2)c1O` [Example 391, 6-chloro-4-{4-[(2-hydroxy-3-methylphenyl)methyl]piperazin-1-yl}-1-methyl-2-oxo-1,2-dihydro-1,5-naphthyridine-3-carbonitrile], the IC50 at human DGKα was determined as 260 nM. Moreover, in the assay with Human venous whole blood (Homo sapiens), the concentration for a half-maximal effect (EC50) amounted to 3500 nM. In the case of `CC(c1ccc(F)cc1)N1CCN(c2c(C#N)c(=O)n(C)c3ccc(Cl)nc23)CC1` (single isomer, unassigned) [Example 387, 6-chloro-4-{4-[1-(4-fluorophenyl)ethyl]piperazin-1-yl}-1-methyl-2-oxo-1,2-dihydro-1,5-naphthyridine-3-carbonitrile], in the assay with naïve human CD8 T cells [1], the half-maximal effective concentration (EC50) worked out at 180 nM. In the case of `C#CCn1c(=O)c([N+](=O)[O-])c(N2CCN(C(CC)c3ccc(F)cc3)CC2)c2nc(C#N)ccc21` (single isomer, unassigned) [Example 141, 8-{4-[1-(4-fluorophenyl)propyl]piperazin-1-yl}-7-nitro-6-oxo-5-(prop-2-yn-1-yl)-5,6-dihydro-1,5-naphthyridine-2-carbonitrile], the EC50 with naïve human CD8 T cells [1] (Homo sapiens, T-cell) turned out to be 10 nM; in the assay on naïve human CD8 T cells [2], 30 nM. Besides, the IC50 at human DGKα worked out at 270 nM. As to `Cn1c(=O)c(C#N)c(N2CCN(C(c3ccc(F)cc3)C3CCC3)CC2)c2nc(Cl)ccc21` (single isomer, unassigned) [Example 382, 6-chloro-4-{4-[cyclobutyl(4-fluorophenyl)methyl]piperazin-1-yl}-1-methyl-2-oxo-1,2-dihydro-1,5-naphthyridine-3-carbonitrile], in the assay on naïve human CD8 T cells [1], the EC50 was found to be 1790 nM. Regarding `C#CCn1c(=O)c([N+](=O)[O-])c(N2CCN(C(c3ccc(F)cc3)c3ccc(F)cc3O)CC2)c2nc(C#N)ccc21` (single isomer, unassigned) [Example 121, 8-(4-((4-fluoro-2-hydroxyphenyl)(4-fluorophenyl)methyl)piperazin-1-yl)-7-nitro-6-oxo-5-(prop-2-yn-1-yl)-5,6-dihydro-1,5-naphthyridine-2-carbonitrile], at human DGKα, the half-maximal inhibitory concentration (IC50) turned out to be 1900 nM. In addition, in the assay with Human venous whole blood (Homo sapiens), the EC50 was 550 nM. Consider `Cc1ccc(CN2CCN(c3c(C#N)c(=O)n(C)c4ccc(Br)nc34)CC2)c(O)c1` [Example 372, 6-bromo-4-{4-[(2-hydroxy-4-methylphenyl)methyl]piperazin-1-yl}-1-methyl-2-oxo-1,2-dihydro-1,5-naphthyridine-3-carbonitrile], for which the IC50 in assay [3] was above 100000 nM; at human DGKα, 33 nM. In addition, the EC50 in the assay with Human venous whole blood (Homo sapiens) came to 5000 nM. In the case of `Cn1c(=O)c([N+](=O)[O-])c(N2CCN(CC(O)c3ccc(F)cc3)CC2)c2nc(C#N)ccc21` (stereo not drawn) [Example 36, 8-{4-[2-(4-fluorophenyl)-2-hydroxyethyl]piperazin-1-yl}-5-methyl-7-nitro-6-oxo-5,6-dihydro-1,5-naphthyridine-2-carbonitrile], at human DGKα, the IC50 was determined as 1400 nM. Take `CCCCn1c(=O)c([N+](=O)[O-])c(N2CCN(C(c3ccccc3)c3ccccc3)CC2)c2ncccc21` [Example 177, 4-(4-benzhydrylpiperazin-1-yl)-1-butyl-3-nitro-1,5-naphthyridin-2(1H)-one]: the half-maximal effective concentration (EC50) in the assay on naïve human CD8 T cells [1] (Homo sapiens, T-cell) amounted to 10000 nM. On to `Cn1c(=O)c(C#N)c(N2CCN(C(CC(C)(C)C)c3ccc(F)cc3)CC2)c2nc(Cl)ccc21` (single isomer, unassigned) [Example 378, 6-chloro-4-{4-[1-(4-fluorophenyl)-3,3-dimethylbutyl]piperazin-1-yl}-1-methyl-2-oxo-1,2-dihydro-1,5-naphthyridine-3-carbonitrile], for which the half-maximal effective concentration (EC50) in the assay on naïve human CD8 T cells [1] is 1740 nM. On to `CC(c1ccc(F)cc1)N1CCN(c2c(C#N)c(=O)n(C)c3ccc(Cl)nc23)CC1` (single isomer, unassigned) [Example 388, 6-chloro-4-{4-[1-(4-fluorophenyl)ethyl]piperazin-1-yl}-1-methyl-2-oxo-1,2-dihydro-1,5-naphthyridine-3-carbonitrile], for which the EC50 in the assay with naïve human CD8 T cells [1] came out at 480 nM. The IC50 at human DGKα was determined as 53 nM.

As for `COc1cc(C#N)ccc1CN1CCN(c2c(C#N)c(=O)n(C)c3ccc(Cl)nc23)CC1` [Example 424, 6-chloro-4-{4-[(4-cyano-2-methoxyphenyl)methyl]piperazin-1-yl}-1-methyl-2-oxo-1,2-dihydro-1,5-naphthyridine-3-carbonitrile], the half-maximal inhibitory concentration (IC50) was above 100000 nM in assay [3] and 770 nM on human DGKα.

Consider `Cn1c(=O)c(C#N)c(N2CCN(C(c3ccc(F)cc3)C3CCC3)CC2)c2nc(Cl)ccc21` (single isomer, unassigned) [Example 383, 6-chloro-4-{4-[cyclobutyl(4-fluorophenyl)methyl]piperazin-1-yl}-1-methyl-2-oxo-1,2-dihydro-1,5-naphthyridine-3-carbonitrile], for which the concentration giving a half-maximal response (EC50) with naïve human CD8 T cells [1] stood at 60 nM. `Cc1ccc2c(n1)c(N1CCN(Cc3cccc(Cl)c3O)CC1)c(C#N)c(=O)n2C` [Example 389, 4-{4-[(3-chloro-2-hydroxyphenyl)methyl]piperazin-1-yl}-1,6-dimethyl-2-oxo-1,2-dihydro-1,5-naphthyridine-3-carbonitrile]: the concentration for half-maximal inhibition (IC50) at human DGKα was 850 nM. Turning to `Cn1c(=O)c(C#N)c(N2CCN(C(c3ccc(F)cc3)c3ccccc3O)CC2)c2nc(C#N)ccc21` (stereo not drawn) [Example 11, 8-{4-[(4-fluorophenyl)(2-hydroxyphenyl)methyl]piperazin-1-yl}-5-methyl-6-oxo-5,6-dihydro-1,5-naphthyridine-2,7-dicarbonitrile], the 50% inhibitory concentration (IC50) on human DGKα is 450 nM.

Take `CC(C)C(c1ccc(F)cc1)N1CCN(c2c(C#N)c(=O)n(C)c3ccc(Cl)nc23)CC1` (single isomer, unassigned) [Example 315, 6-chloro-4-{4-[1-(4-fluorophenyl)-2-methylpropyl]piperazin-1-yl}-methyl-2-oxo-1,2-dihydro-1,5-naphthyridine-3-carbonitrile]: the EC50 with naïve human CD8 T cells [1] (Homo sapiens, T-cell) was 1260 nM. The IC50 in assay [3] was determined as 250 nM. Take `Cn1c(=O)c(C#N)c(N2CCN(C(CC(C)(C)C)c3ccc(F)cc3)CC2)c2nc(Cl)ccc21` (single isomer, unassigned) [Example 377, 6-chloro-4-{4-[1-(4-fluorophenyl)-3,3-dimethylbutyl]piperazin-1-yl}-1-methyl-2-oxo-1,2-dihydro-1,5-naphthyridine-3-carbonitrile]: in the assay on naïve human CD8 T cells [1], the concentration for a half-maximal effect (EC50) was 10000 nM. For the compound `Cn1c(=O)c([N+](=O)[O-])c(N2CCN(Cc3cccc4ccccc34)CC2)c2nc(C#N)ccc21` [Example 415, 5-methyl-8-{4-[(naphthalen-1-yl)methyl]piperazin-1-yl}-7-nitro-6-oxo-5,6-dihydro-1,5-naphthyridine-2-carbonitrile], the 50% effective concentration (EC50) in the assay on naïve human CD8 T cells [1] (Homo sapiens, T-cell) came to 20 nM. For the compound `C#CCn1c(=O)c([N+](=O)[O-])c(N2CCN(C(C)c3ccc(F)cc3)CC2)c2nc(C#N)ccc21` (single isomer, unassigned) [Example 136, 8-(4-(1-(4-fluorophenyl)ethyl)piperazin-1-yl)-7-nitro-6-oxo-5-(prop-2-yn-1-yl)-5,6-dihydro-1,5-naphthyridine-2-carbonitrile], at human DGKα, the IC50 is 210 nM. For the same compound, the EC50 in the assay with Human venous whole blood is 1160 nM. As to `C#CCn1c(=O)c([N+](=O)[O-])c(N2CCN(C(c3ccc(F)cc3)C3CC3)CC2)c2nc(C#N)ccc21` (single isomer, unassigned) [Example 143, 8-(4-(cyclopropyl(4-fluorophenyl)methyl)piperazin-1-yl)-7-nitro-6-oxo-5-(prop-2-yn-1-yl)-5,6-dihydro-1,5-naphthyridine-2-carbonitrile], the EC50 is 10 nM in the assay on naïve human CD8 T cells [1] (Homo sapiens, T-cell) and 90 nM with naïve human CD8 T cells [2]. Also, at human DGKα, the 50% inhibitory concentration (IC50) was 1300 nM. With `Cc1ccc2c(n1)c(N1CCN(C(C)c3ccc(F)cc3)CC1)c(Br)c(=O)n2C` (stereo not drawn) [Example 224, 3-bromo-4-(4-(1-(4-fluorophenyl)ethyl)piperazin-1-yl)-1,6-dimethyl-1,5-naphthyridin-2(1H)-one], the half-maximal effective concentration (EC50) in the assay with naïve human CD8 T cells [1] (Homo sapiens, T-cell) turned out to be 4280 nM. Moreover, the 50% inhibitory concentration (IC50) at human DGKα was 540 nM.
